Data on two substances can be found in patent publication US20250302862A1, “SMALL RNA DRUG FOR INHIBITING ACTIVITY OF CANCER CELLS” (Institute of Basic Medical Sciences Chinese Academy of …, priority 2022, published 2025).

One data set concerns cyclooxygenase-2 (COX2). Kind of data set: Dual luciferase reporter assay in 293T cells. In kind it is cell-based. As to the method: The targeting effect of HQi-sRNA-2 obtained from medicinal plants by the inventors on cyclooxygenase-2 (COX2) was studied by a dual luciferase reporter detection system, so as to study its potential to exert lipid-lowering effects.
293T cells were cultured and transfected with the HQi-sRNA-2 to be screened and NC-sRNA, respectively, and then with the dual luciferase reporter plasmid of COX2. The dual luciferase activity was detected after 48 h.
Background: A reporter such as luciferase makes a cellular process visible.

The test system of data set [1] is pancreatic cancer ASPC-1 cells. Kind of data set: Cell invasion (Matrigel Transwell). In kind it is cell-based, human. The conditions noted are these: 100 nmol/L, jetPRIME, 72 h. The protocol: 1) Matrigel basement membrane matrix was thawed on crushed ice one night before and diluted with serum-free medium to a final concentration of 200-300 ug/mL. 100 uL of the diluted Matrigel was added to each upper chamber, let stand at 37° C. for 30 min, and the supernatant was aspirated. ASPC-1 cells and BXPC-3 cells with a cell density of more than 90% in 10 cm^2 dishes were digested and resuspended with 1 mL of serum-free medium and counted. 100,000 cells (100 uL) were plated in the upper chamber, and complete medium with 10% FBS was added to the lower chamber of each chamber. Transfection was performed after 12 h, and the groups (3 wells per group) were divided as follows: • blank control group: 10 uL of jetPRIME Buffer • negative control group (NC group) and experimental group: 10 uL of jetPRIME Buffer was mixed well with 0.5 uL of jetPRIME reagent and 0.5 uL of small RNA and let stand for 15 min, and then was added to each well at a 10 uL system (final concentration 100 nmol/L) • Note: 100 uL of nuclease-free water was added to 2 nmol of small RNA dry powder for dissolution at a storage concentration of 20 umol/L
After 72 h, the medium in upper and lower chambers was discarded. The cells were fixed with paraformaldehyde at room temperature for 15 min, stained with 0.1% crystal violet at room temperature for 15 min, and rinsed with PBS. […]

Regarding “HQi-sRNA-2: small RNA derived from Scutellaria baicalensis, sequence AUGGUUCGAUUCCGGAGAGGG (listed as RNA, chemistry not given here)”, the luciferase activity entry with cyclooxygenase-2 (COX2) (COX2 dual luciferase reporter plasmid, 48 h, compared with NC-sRNA) is recorded as “significantly reduce”; with cyclooxygenase-2 (COX2) (base sequence of the binding site mutated), “restored”. For the substance “MDM-sRNA-39: small RNA derived from Maytenus hookeri, sequence GGGAUUGUAGUUCAAUUGGUCAGAGCACC (listed as RNA, chemistry not given here)”, in data set [1], the cell invasion entry is given as “inhibits”.
